Tests used:
Type in all cases: in vivo
[1] = system: Abutilon theophrasti (ABUTH); assay: Post-emergence herbicidal action, greenhouse pot test; details: rated visually after about 3 weeks vs untreated controls, 100% = plants have died
Outline: (§1)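 Greenhouse-grown weeds in sandy loam were sprayed post-emergence at the one-leaf stage, 2–3 weeks after sowing. Compounds were formulated as WP or EC in water with 0.5% additive at 600 l/ha, at rates of 20 g/ha or less. Visual rating after about 3 weeks used a scale from 0% (like untreated control) to 100% (plants dead).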

[2] = system: Amaranthus retroflexus (AMARE); assay: as above; details: rated visually after about 3 weeks vs untreated controls, 100% = plants have died
Outline: as §1

Avena fatua (AVEFA) = assay: as above; details: rated visually after about 3 weeks vs untreated controls, 100% = plants have died
Outline: as §1

[3] = system: Pharbitis purpurea (PHBPU); assay: as above
Outline: as §1

[4] = system: Polygonum convolvulus (POLCO); assay: as above
Outline: as §1

Veronica persica (VERPE) = assay: as above
Outline: as §1

Viola tricolor (VIOTR) = assay: as above
Outline: as §1

[5] = system: Alopecurus myosuroides (ALOMY); assay: Post-emergence herbicidal action, greenhouse pot test (also comparative test C); details: rated visually after about 3 weeks vs untreated controls, 100% = plants have died
Outline: (§2)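 Greenhouse pot plants in sandy loam were sprayed post-emergence at the one-leaf stage (2–3 weeks after sowing) with WP or EC formulations plus 0.5% additive at 600 l/ha water. Activity was rated visually after about 3 weeks versus untreated controls (100% = dead, 0% = like control); rates were 20 g/ha or less, and 5 g/ha or less in the comparative test.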

[6] = system: Echinochloa crus-galli (ECHCG); assay: as above
Outline: as §2

[7] = system: Matricaria inodora (MATIN); assay: as above
Outline: as §2

Setaria viridis (SETVI) = assay: as above
Outline: as §2

[8] = system: Triticum aestivum (TRZAS); assay: Post-emergence crop plant compatibility, greenhouse pot test; details: vs untreated controls
Outline: (§3)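 Crop plants grown in sandy loam in the greenhouse were sprayed post-emergence at the one-leaf stage, 2–3 weeks after sowing, with WP or EC formulations as aqueous suspension/emulsion plus 0.5% additive at 600 l/ha. Damage was rated visually about 3 weeks later versus untreated controls (0% = like control, 100% = plants dead).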

Zea mays (ZEAMX) = assay: as above; details: 1.25 g/ha, vs untreated controls
Outline: as §3

Oryza sativa (ORYSA) = assay: Post-emergence crop plant compatibility, greenhouse pot test (also comparative test C); details: vs untreated controls
Outline: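 Rice and other crops sprayed post-emergence at one-leaf stage (2–3 weeks after sowing) with WP or EC formulations plus 0.5% additive at 600 l/ha water. Visual rating about 3 weeks later versus untreated controls (100% = dead, 0% = like control); suffixes a–c denote different doses.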

SMILES: Cn1c(C(F)(F)F)cc(=O)n(-c2cc(Oc3ccccc3OCC(=O)OCC#N)c(C#N)cc2F)c1=O [I.9-176, Cyanomethyl (2-{2-cyano-4-fluoro-5-[3-methyl-2,6-dioxo-4-(trifluoromethyl)-3,6-dihydropyrimidin-1(2H)-yl]phenoxy}phenoxy)acetate]
- pest or weed control at 1.25 g/ha ([1]; Abutilon theophrasti, 504 h, 1.25 g/ha, read-out: Post-emergence action at 1.25 g/ha against ABUTH in %): 100%
- pest or weed control at 5 g/ha ([1]; Abutilon theophrasti, 504 h, 5 g/ha, read-out: Post-emergence action at 5 g/ha against ABUTH in %): 100%
- pest or weed control at 20 g/ha ([1]; Abutilon theophrasti, 504 h, 20 g/ha, read-out: Post-emergence action at 20 g/ha against ABUTH in %): 100%
- pest or weed control at 1.25 g/ha ([2]; Amaranthus retroflexus, 504 h, 1.25 g/ha, read-out: Post-emergence action at 1.25 g/ha against AMARE in %): 100%
- pest or weed control at 5 g/ha ([2]; Amaranthus retroflexus, 504 h, 5 g/ha, read-out: Post-emergence action at 5 g/ha against AMARE in %): 100%
- pest or weed control at 20 g/ha ([2]; Amaranthus retroflexus, 504 h, 20 g/ha, read-out: Post-emergence action at 20 g/ha against AMARE in %): 100%
- Post-emergence action at 5 g/ha against AVEFA in % (Avena fatua (AVEFA); 5 g/ha): 80%
- pest or weed control at 20 g/ha (Avena fatua (AVEFA); Avena fatua, 504 h, 20 g/ha, read-out: Post-emergence action at 20 g/ha against AVEFA in %): 80%
- pest or weed control at 5 g/ha ([3]; Ipomoea purpurea, 504 h, dosage 5 g/ha, read-out: Post-emergence action against PHBPU in %): 100%
- pest or weed control at 20 g/ha ([3]; Ipomoea purpurea, 504 h, dosage 20 g/ha, read-out: Post-emergence action against PHBPU in %): 100%
- pest or weed control at 20 g/ha ([4]; Fallopia convolvulus, 504 h, dosage 20 g/ha, read-out: Post-emergence action against POLCO in %): 100%
- pest or weed control at 1.25 g/ha (Veronica persica (VERPE); Veronica persica, 504 h, 1.25 g/ha, read-out: Post-emergence action against VERPE): 100%
- pest or weed control at 5 g/ha (Veronica persica (VERPE); Veronica persica, 504 h, 5 g/ha, read-out: Post-emergence action against VERPE): 100%
- pest or weed control at 20 g/ha (Veronica persica (VERPE); Veronica persica, 504 h, 20 g/ha, read-out: Post-emergence action against VERPE): 100%
- pest or weed control at 1.25 g/ha (Viola tricolor (VIOTR); Viola tricolor, 504 h, 1.25 g/ha, read-out: Post-emergence action against VIOTR): 100%
- pest or weed control at 5 g/ha (Viola tricolor (VIOTR); Viola tricolor, 504 h, 5 g/ha, read-out: Post-emergence action against VIOTR): 100%
- pest or weed control at 20 g/ha (Viola tricolor (VIOTR); Viola tricolor, 504 h, 20 g/ha, read-out: Post-emergence action against VIOTR): 100%
- pest or weed control at 5 g/ha ([5]; Alopecurus myosuroides, 504 h, 5 g/ha, read-out: Post-emergence action at 5 g/ha against ALOMY in %): 100%
- pest or weed control at 20 g/ha ([5]; Alopecurus myosuroides, 504 h, 20 g/ha, read-out: Post-emergence action at 20 g/ha against ALOMY in %): 100%
- Post-emergence action at 1.25 g/ha against ECHCG in % ([6]; 1.25 g/ha, rated visually after about 3 weeks vs untreated controls, 100% = plants have died): 100%
- pest or weed control at 5 g/ha ([6]; Echinochloa crus-galli, 504 h, dosage 5 g/ha, read-out: Post-emergence action against ECHCG in %): 100%
- pest or weed control at 20 g/ha ([6]; Echinochloa crus-galli, 504 h, dosage 20 g/ha, read-out: Post-emergence action against ECHCG in %): 100%
- pest or weed control at 5 g/ha ([7]; Tripleurospermum inodorum, 504 h, dosage 5 g/ha, read-out: Post-emergence action against MATIN in %): 100%
- pest or weed control at 20 g/ha ([7]; Tripleurospermum inodorum, 504 h, dosage 20 g/ha, read-out: Post-emergence action against MATIN in %): 100%
- pest or weed control at 20 g/ha (Setaria viridis (SETVI); Setaria viridis, 504 h, 20 g/ha, read-out: Post-emergence action against SETVI): 100%
- pest or weed control at 1.25 g/ha (Setaria viridis (SETVI); Setaria viridis, 504 h, dosage 1.25 g/ha, read-out: Post-emergence action against SETVI in %): 100%
- pest or weed control at 5 g/ha (Setaria viridis (SETVI); Setaria viridis, 504 h, dosage 5 g/ha, read-out: Post-emergence action against SETVI in %): 100%
- Post-emergence action against TRZAS (crop plant compatibility) ([8]; 1.25 g/ha): 0%
- Post-emergence action against TRZAS (crop plant compatibility) ([8]; 5 g/ha): 20%
- Post-emergence action against ZEAMX (crop plant compatibility) (Zea mays (ZEAMX)): 0%
- Post-emergence action against ORYSA (crop plant compatibility) (Oryza sativa (ORYSA); 1.25 g/ha): 0%
- Post-emergence action against ORYSA (crop plant compatibility) (Oryza sativa (ORYSA); 5 g/ha): 20%

SMILES: Cn1c(C(F)(F)F)cc(=O)n(-c2cc(Oc3ccccc3OCC(=O)OCCOC(F)(F)F)c(C#N)cc2F)c1=O [I.9-41]
- Post-emergence action at 1.25 g/ha against ABUTH in % ([1]; 1.25 g/ha): 100%
- Post-emergence action at 5 g/ha against ABUTH in % ([1]; 5 g/ha): 100%
- Post-emergence action at 20 g/ha against ABUTH in % ([1]; 20 g/ha): 100%
- Post-emergence action at 1.25 g/ha against AMARE in % ([2]; 1.25 g/ha): 100%
- Post-emergence action at 5 g/ha against AMARE in % ([2]; 5 g/ha): 100%
- Post-emergence action at 20 g/ha against AMARE in % ([2]; 20 g/ha): 100%
- Post-emergence action at 20 g/ha against AVEFA in % (Avena fatua (AVEFA); 20 g/ha): 80%
- Post-emergence action against PHBPU in % ([3]; dosage 1.25 g/ha): 100%
- Post-emergence action against PHBPU in % ([3]; dosage 5 g/ha): 100%
- Post-emergence action against PHBPU in % ([3]; dosage 20 g/ha): 100%
- Post-emergence action against POLCO in % ([4]; dosage 5 g/ha): 90%
- Post-emergence action against POLCO in % ([4]; dosage 20 g/ha): 100%
- Post-emergence action against VERPE (Veronica persica (VERPE); 5 g/ha): 100%
- Post-emergence action against VERPE (Veronica persica (VERPE); 20 g/ha): 100%
- Post-emergence action against VIOTR (Viola tricolor (VIOTR); 1.25 g/ha): 90%
- Post-emergence action against VIOTR (Viola tricolor (VIOTR); 5 g/ha): 100%
- Post-emergence action against VIOTR (Viola tricolor (VIOTR); 20 g/ha): 100%
- Post-emergence action at 20 g/ha against ALOMY in % ([5]; 20 g/ha): 80%
- Post-emergence action against ECHCG in % ([6]; dosage 5 g/ha): 80%
- Post-emergence action against ECHCG in % ([6]; dosage 20 g/ha): 100%
- Post-emergence action against MATIN in % ([7]; dosage 1.25 g/ha): 100%
- Post-emergence action against MATIN in % ([7]; dosage 5 g/ha): 100%
- Post-emergence action against MATIN in % ([7]; dosage 20 g/ha): 100%
- Post-emergence action against SETVI (Setaria viridis (SETVI); 20 g/ha): 100%
- Post-emergence action against SETVI in % (Setaria viridis (SETVI); dosage 1.25 g/ha): 100%
- Post-emergence action against SETVI in % (Setaria viridis (SETVI); dosage 5 g/ha): 100%
- Post-emergence action against TRZAS (crop plant compatibility) ([8]; 1.25 g/ha): 0%
- Post-emergence action against TRZAS (crop plant compatibility) ([8]; 5 g/ha): 10%
- Post-emergence action against TRZAS (crop plant compatibility) ([8]; 20 g/ha): 20%
- Post-emergence action against ZEAMX (crop plant compatibility) (Zea mays (ZEAMX)): 10%
- Post-emergence action against ORYSA (crop plant compatibility) (Oryza sativa (ORYSA); 1.25 g/ha): 0%
- Post-emergence action against ORYSA (crop plant compatibility) (Oryza sativa (ORYSA); 5 g/ha): 0%

Reference: US20240025862A1, “SUBSTITUTED N-PHENYLURACILS AND SALTS THEREOF, AND USE THEREOF AS HERBICIDAL ACTIVE SUBSTANCES” (Bayer Aktiengesellschaft, priority 2020, published 2024)
